{
  "source": "patent US20240172747A1",
  "about": "“USE OF SORBIC ACID AND SALTS THEREOF AS A NEMATOCIDE” (GONELLA INVENT SOCIETA' A RESPONSABILITA' LIMITATA […], priority 2021, published 2024)",
  "key": {"[1]": {"system": "larvae of the genus Meloydogine, Heterodera and Globodera", "conditions": "laboratory tests"}, "Meloidogyne J2 larvae": {"system": "Meloidogyne J2 larvae", "test": "Motility/mortality test on Meloidogyne J2 larvae in suspension", "assay_type": "in vivo", "conditions": "single replicates; for READING % IMMOBILE J2 @ 2 H: 2 h exposure; for % DEAD J2 @ 24 H: 24 h exposure", "procedure": "Extraction of root-knot nematodes taken from soil cultivated with basil (Ocimum basilicum) with strong infestation (J2 larvae) from about 500 cc of soil by means of a wool-paper filter (EPPO Bulletin 13,2013) and concentration in distilled water.\nThe Tests were established by adding an amount of stock solution to one ml of nematode suspension, so as to obtain the final established concentrations.\nNematodes motility parameters were evaluated after 2 h and after 24 h exposure of the J2 larvae to the nematocidal substance.\nIn the first test, the count was carried out by microscopic observation of immobile nematodes after 2 hours exposure to the product, to evaluate a possible […] effect of the substance. In the second test, the count was carried out by microscopic observation of the nematodes considered dead with strong signs of tissue degeneration (thickening and blistering in the nematode body accompanied by the final folding of the body at right angle)."}, "M. incognita nematodes": {"system": "M. incognita nematodes", "description": "The trial was followed by a test center (third body) in the Vittoria area (RG) in greenhouses with continuous cycles of courgette (Cucurbita pepo) subjected to strong pressure of M. incognita nematodes. […] First application at day 1 after transplantation (DAT), second application at day 7 DAT, third application at day 21 DAT.\nThe follow-up was scheduled at day 45 (FIG. 5 and FIG. 6) and day 90 after the first treatment. […] Following this screening trial, new large-scale tests will begin to establish optimal doses, modes and volume of distribution. From Table 3 below, it was possible to evaluate the % of nematode attack with a count of the damage present on the root system (galls)."}, "insects or mites": {"system": "insects or mites", "conditions": "laboratory tests"}, "[2]": {"conditions": "OECD Test Guideline 402; cited from earlier work"}, "[3]": {"conditions": "25° C.; cited from earlier work"}, "[4]": {"conditions": "OECD Test Guideline 403; cited from earlier work"}, "nematodes": {"system": "nematodes", "conditions": "laboratory test in a jar, after application", "description": "A dose ranging from 0.0001% to 0.001% is considered a “sub-lethal” or “nematostatic” dose, and therefore is a dose which may not kill the nematode but inhibits its mobility and pest capacity."}, "[5]": {"system": "Meloidogyne incognita eggs", "procedure": "In order to evaluate the efficacy in containing the root-knot nematode Meloidogyne incognita, several in vitro experimental tests were carried out using a sorbic acid solution containing 1 mg/ml of active substance at 98% purity. The average of the tests is reported.\nThis test concentration was tested on unsegmented and embryonated eggs of M. incognita.\nThe tests carried out were developed in vitro using double concave glass lenses, by introducing 2 ml of the test solution containing 1 mg/ml of sorbic acid, or sterile water in the case of the control. The incubation took place at a room temperature of 22° C., in the dark. The population of M. incognita was from plants raised in an open field of tomatoes (Solanum lycopersicum).\nUnsegmented and embryonated eggs: the eggs were collected from the ovisacs and placed in a double concave glass lens in the presence of the solution to be tested.\nCounts of hatched larvae were carried out for 7 days with daily counting and microscopic observation."}, "[6]": {"conditions": "TEST 1: Potassium Sorbate (80% purity) 250 μg/ml"}, "[7]": {"conditions": "TEST 2: Potassium Sorbate 500 μg/ml"}, "[8]": {"conditions": "TEST 3: Potassium Sorbate 1 mg/ml"}},
  "note": "Where “and” joins values, the source holds several entries; their conditions need not be identical. Equal values may be shown once.",
  "data": [
    {"molecule": "C/C=C/C=C/C(=O)[O-].C/C=C/C=C/C(=O)[O-].[Ca+2]", "note": "[Calcium Sorbate, calcium sorbate]", "values": [
      {"measurement": "effect on larvae of the genus Meloydogine, on Heterodera and Globodera", "setting": "[1]", "value": "had an effect"}
    ]},
    {"molecule": "C/C=C/C=C/C(=O)[O-].[K+]", "note": "[Potassium Sorbate, potassium sorbate]", "values": [
      {"measurement": "READING % IMMOBILE J2 @ 2 H", "setting": "Meloidogyne J2 larvae; [6]", "value": "10% and 5% and 7% and 2%"},
      {"measurement": "% DEAD J2 @ 24 H", "setting": "Meloidogyne J2 larvae; [6]", "value": "15% and 12% and 18% and 10%"},
      {"measurement": "READING % IMMOBILE J2 @ 2 H", "setting": "Meloidogyne J2 larvae; [7]", "value": "40% and 38% and 45% and 43%"},
      {"measurement": "% DEAD J2 @ 24 H", "setting": "Meloidogyne J2 larvae; [7]", "value": "80% and 76% and 75% (2×)"},
      {"measurement": "READING % IMMOBILE J2 @ 2 H", "setting": "Meloidogyne J2 larvae; [8]", "value": "75% (2×) and 78% and 80%"},
      {"measurement": "% DEAD J2 @ 24 H", "setting": "Meloidogyne J2 larvae; [8]", "value": "98% and 99% and 100% and 96%"},
      {"measurement": "effect on larvae of the genus Meloydogine, on Heterodera and Globodera", "setting": "[1]", "value": "had an effect"},
      {"measurement": "Average weight of a courgette", "setting": "M. incognita nematodes; 10 kg/ha", "value": 0.24, "unit": "kg"},
      {"measurement": "Average production of a plant, No. courgettes", "setting": "M. incognita nematodes; 10 kg/ha, mean of 20 plants", "value": 15.75},
      {"measurement": "Average production of a plant, Weight in kg", "setting": "M. incognita nematodes; 10 kg/ha, mean of 20 plants", "value": 3.78, "unit": "kg"},
      {"measurement": "toxicity or damage of the root system", "setting": "M. incognita nematodes; field application, courgette", "value": "without leading to toxicity or damage of the root system"}
    ]},
    {"molecule": "C/C=C/C=C/C(=O)[O-].[Na+]", "note": "[Sodium Sorbate, sodium sorbate]", "values": [
      {"measurement": "effect on larvae of the genus Meloydogine, on Heterodera and Globodera", "setting": "[1]", "value": "had an effect"}
    ]},
    {"molecule": "C/C=C/C=C/C(=O)O", "note": "[Sorbic Acid, 2,4-hexadienoic acid]", "values": [
      {"measurement": "insecticidal or acaricidal activity", "setting": "insects or mites", "value": "no insecticidal activity (insect kingdom) or acaricidal activity has been found"},
      {"measurement": "Lethal Dose 50: LD50", "setting": "[2]", "value": "> 3000", "unit": "mg/kg"},
      {"measurement": "partition coefficient: n-octanol/water, log Pow", "setting": "[3]", "value": 1.32},
      {"measurement": "Lethal Concentration 50: LC50", "setting": "[4]", "value": 5.1, "unit": "mg·L"},
      {"measurement": "nematostatic effect: number of immature forms", "setting": "nematodes", "value": "a greater number of immature forms"},
      {"measurement": "effect on larvae of the genus Meloydogine, on Heterodera and Globodera", "setting": "[1]", "value": "had an effect"},
      {"measurement": "hatched larvae, Day 1 DAT", "setting": "[5]; 1 mg/ml sorbic acid (98% purity), 22° C., dark, Day 1, average of tests", "value": 0},
      {"measurement": "hatched larvae, Day 2 DAT", "setting": "[5]; 1 mg/ml sorbic acid, 22° C., dark, Day 2, average of tests", "value": 0, "unit": "%"},
      {"measurement": "hatched larvae, Day 3 DAT", "setting": "[5]; 1 mg/ml sorbic acid, 22° C., dark, Day 3, average of tests", "value": 0, "unit": "%"},
      {"measurement": "hatched larvae, Day 4 DAT", "setting": "[5]; 1 mg/ml sorbic acid, 22° C., dark, Day 4, average of tests", "value": 0, "unit": "%"},
      {"measurement": "hatched larvae, Day 5 DAT", "setting": "[5]; 1 mg/ml sorbic acid, 22° C., dark, Day 5, average of tests", "value": 0, "unit": "%"},
      {"measurement": "hatched larvae, Day 6 DAT", "setting": "[5]; 1 mg/ml sorbic acid, 22° C., dark, Day 6, average of tests", "value": 1, "unit": "%"},
      {"measurement": "hatched larvae, Day 7 DAT", "setting": "[5]; 1 mg/ml sorbic acid, 22° C., dark, Day 7, average of tests", "value": 3, "unit": "%"},
      {"measurement": "efficacy on egg embryogenesis and larvae", "setting": "[5]; 1 mg/ml sorbic acid, in vitro", "value": "allowing the inhibition of egg embryogenesis and excellent action on larvae, both free and included in ovisacs"}
    ]},
    {"molecule": "Abamectin [REFERENCE, reference compound]", "values": [
      {"measurement": "READING % IMMOBILE J2 @ 2 H", "setting": "Meloidogyne J2 larvae; Reference: Abamectin 90 μg/ml", "value": "100% and 99% (2×) and 98%"},
      {"measurement": "% DEAD J2 @ 24 H", "setting": "Meloidogyne J2 larvae; Reference: Abamectin 90 μg/ml", "value": "100% (3×) and 99%"}
    ]}
  ]
}
